These results are taken from patent US20060069108A1, “Use of (R)-penciclovir triphosphate for the manufacture of a medicament for the treatment of viral diseases” (priority 1995, published 2006).

Assay [1] addresses HIV-1 reverse transcriptase (Human immunodeficiency virus type 1 group M subtype B, UniProt P04585). The assay can be described thus: Inhibition of HIV-1 reverse transcriptase. The assay is classed as biochemical, human immunodeficiency virus type 1 (HIV-1).
The target in another assay is HBV DNA polymerases (Hepatitis B virus genotype D subtype ayw, UniProt P03156). Nature of the assay: Inhibition of HBV DNA polymerases. The class given is biochemical. The settings on record: activity compared with the (S)-enantiomer.
HBV DNA polymerases, sequence (P03156 whole entry): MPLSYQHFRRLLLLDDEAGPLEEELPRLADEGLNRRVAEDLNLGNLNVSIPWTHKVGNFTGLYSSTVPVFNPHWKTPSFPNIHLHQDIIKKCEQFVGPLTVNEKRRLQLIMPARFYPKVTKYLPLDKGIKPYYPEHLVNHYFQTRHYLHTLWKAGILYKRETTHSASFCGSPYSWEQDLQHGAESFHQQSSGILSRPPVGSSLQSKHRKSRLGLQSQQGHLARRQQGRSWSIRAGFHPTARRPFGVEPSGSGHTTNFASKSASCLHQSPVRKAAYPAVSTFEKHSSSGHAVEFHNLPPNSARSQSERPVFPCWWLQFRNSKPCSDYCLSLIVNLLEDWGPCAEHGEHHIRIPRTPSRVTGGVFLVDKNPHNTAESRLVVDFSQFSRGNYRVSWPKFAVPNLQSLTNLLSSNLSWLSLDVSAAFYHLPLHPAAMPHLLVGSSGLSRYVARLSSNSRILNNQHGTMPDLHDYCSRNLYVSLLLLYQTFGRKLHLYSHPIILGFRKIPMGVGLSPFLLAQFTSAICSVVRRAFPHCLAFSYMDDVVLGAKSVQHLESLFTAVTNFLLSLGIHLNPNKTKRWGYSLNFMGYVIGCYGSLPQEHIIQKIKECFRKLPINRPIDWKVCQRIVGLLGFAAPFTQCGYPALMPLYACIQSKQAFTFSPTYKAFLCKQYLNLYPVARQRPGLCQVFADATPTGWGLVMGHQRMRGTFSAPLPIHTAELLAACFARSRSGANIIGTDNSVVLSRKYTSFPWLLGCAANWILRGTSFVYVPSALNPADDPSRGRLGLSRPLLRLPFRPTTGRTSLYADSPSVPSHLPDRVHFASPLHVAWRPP

Regarding `Nc1nc2c(ncn2CC[C@H](CO)COP(=O)(O)OP(=O)(O)OP(=O)(O)O)c(=O)[nH]1` (single isomer, unassigned) [(R)-enantiomer of PCV-TP], the “inhibition of HIV-1 reverse transcriptase” value in assay [1] (activity compared with the (S)-enantiomer) is reported as “more active than the (S)-enantiomer”. The “inhibition of HBV DNA polymerases” value on HBV DNA polymerases is listed as “more active than the (S)-enantiomer”. For the compound “penciclovir triphosphate [triphosphate derivative of penciclovir, reference compound]”, the “inhibition of RNA-directed DNA polymerase (reverse transcriptase) activity of HIV-1” value in assay [1] was “inhibits”.
